Measured values as given in patent US5527820A, “Antibiotics having immunosuppressive activity, delaminomycins and processes for the production of the same” (priority 1992, dated 1996).
In brackets after ≈: the same amount, converted by molar mass.

Key:
Candida Yu-1200 = experiment: MIC, agar plate dilution method; format: cell-based; settings: YU1200, 27° C., 42 hours, nutrient agar containing glucose
Human Lymphoma Jurkat = experiment: Inhibitory activity on proliferation of cancer cells; format: cell-based
Mouse leukemia L-1210 = experiment: as above; format: cell-based; settings: L1210
Candida krusei F-5 = experiment: MIC, agar plate dilution method; format: cell-based; settings: Pichia kudriavzevii, F5; 27° C., 42 hours, nutrient agar containing glucose
Pellicularia sasakii = experiment: MIC, agar plate dilution method; format: cell-based; settings: 27° C., 42 hours, nutrient agar containing glucose
[1] = tested on: Saccharomyces cerevisiae F-7; experiment: MIC, agar plate dilution method; format: cell-based; settings: F7, 27° C., 42 hours, nutrient agar containing glucose
Piricularia oryzae = experiment: microbe, parasite or virus in culture; format: cell-based; settings: 42 h
Gram-positive bacteria = experiment: Antibacterial activity to Gram-positive bacteria; format: cell-based; settings: result in words
Description: (§1) Delaminomycins A, B, C, A2, B2 and C2 according to this invention further have an antibacterial activity against a variety of bacteria. The minimum growth inhibitory concentrations (MIC) (μg/ml) of the novel antibiotics of this invention on various bacteria and fungi as measured by the agar plate dilution method are shown in Table 5a, Table 5b, Table 5c and Table 5d below.

[2] = tested on: spleen cells (T cells activated by Concanavalin A); experiment: Inhibitory activity against blastogenesis and proliferation of spleen cells caused by mitogen (Con A); format: cell-based, mouse (CDF1)
[3] = tested on: Candida pseudotropicalis F-2; experiment: MIC, agar plate dilution method; format: cell-based; settings: Kluyveromyces marxianus, F2; 27° C., 42 hours, nutrient agar containing glucose
[4] = tested on: Trichophyton mentagrophytes F-15 (833); experiment: MIC, agar plate dilution method; format: cell-based; settings: 27° C., 42 hours, nutrient agar containing glucose
Candida tropicalis F-1 = experiment: MIC, agar plate dilution method; format: cell-based; settings: F1, 27° C., 42 hours, nutrient agar containing glucose
[5] = tested on: delayed-type hypersensitivity (DTH); experiment: Suppressive effect on delayed-type hypersensitivity (DTH) in mouse, oral; format: in vivo, mouse (CDF1); settings: oral once a day, 0~4th day
Description: (§2) CDF1 mice were immunized by intravenously injecting sheep red blood cells (10^5 cells/mouse). On the 4th day after the immunization, sheep red blood cells (10^8 cells/mouse) were subcutaneously injected into the footpad of mice for the elicitation to cause a delayed-type hypersensitivity. Test compound was orally administered to the mice once a day from the 0 th day to the 4 th day after the immunization. On the 5th day after the elicitation, the thickness of the mouse footpad was measured to estimate the suppressive effect of the test compound on DTH. The suppressive effect of the test compound was evaluated in terms of the inhibition rate (%) as calculated according to the following equation:
(§3) Inhibition rate (%)=100-(T/C×100)
wherein T denotes the thickness of the footpad when the test compound was administered, but C denotes the thickness of the footpad when no test compounnd was administered.

Xanthomonas citri = experiment: MIC, agar plate dilution method; format: cell-based; settings: 27° C., 42 hours, nutrient agar containing glucose
Description: as §1
(§4) Evaluated after culturing at 27° C. for 42 hours in nutrient agar
(§5) medium containing glucose.

Cochliobolus miyabeanus = experiment: MIC, agar plate dilution method; format: cell-based; settings: Bipolaris oryzae; 27° C., 42 hours, nutrient agar containing glucose
Description: as §1, §4, §5

[6] = tested on: delayed-type hypersensitivity (DTH); experiment: Suppressive effect on delayed-type hypersensitivity (DTH) in mouse, intraperitoneal; format: in vivo, mouse (CDF1); settings: intraperitoneal once a day, 0-4th day
Description: Suppressive effect of delaminomycins on delayed-type hypersensitivity (DTH) in mouse
as §2, with “hypersensitivity (DTH).” for “hypersensitivity.”, “intraperitoneally” for “orally”, “0th” for “0 th”, “4th” for “the 4 th”, “elicitation” for “elicitation,”, “the DTH response.” for “DTH.”
as §3
wherein T denotes the thickness of the footpad when administering the test compound, but C denotes the thickness of the footpad when administering no test compound.

Mouse melanoma B-16 = experiment: Inhibitory activity on proliferation of cancer cells; format: cell-based; settings: B16
Aspergillus niger F-16 = experiment: MIC, agar plate dilution method; format: cell-based; settings: F16, 27° C., 42 hours, nutrient agar containing glucose
[7] = tested on: nylon wool-passed cells of spleen cells (responder cell; T cells); experiment: Inhibitory activity to the mixed lymphocyte culture reaction; format: cell-based, rat (Fischer F344 responder; WKY stimulator)
[8] = in vivo
[9] = tested on: Cryptococcus neoformans F-10; experiment: MIC, agar plate dilution method; format: cell-based; settings: F10, 27° C., 42 hours, nutrient agar containing glucose
Candida albicans 3147 = experiment: MIC, agar plate dilution method; format: cell-based; settings: 27° C., 42 hours, nutrient agar containing glucose
[10] = tested on: Trichophyton asteroides 429; experiment: MIC, agar plate dilution method; format: cell-based; settings: 27° C., 42 hours, nutrient agar containing glucose
Mouse leukemia EL-4 = experiment: Inhibitory activity on proliferation of cancer cells; format: cell-based; settings: EL4
Mouse leukemia P388D1 = experiment: as above; format: cell-based

CCC(O)C(C)/C=C/C=C/C1CC2C=CC3CC(C)CC(C)C3C2(C)C(=O)C12C(=O)NC(O)C2=O (stereo not drawn) [Delaminomycin A2]
MIC (Candida Yu-1200): > 100 µg/mL | IC50 (Human Lymphoma Jurkat): 5.9 µg/mL (≈ 12.2 µM) | IC50 (Mouse leukemia L-1210): 3.7 µg/mL (≈ 7.65 µM) | MIC (Candida krusei F-5): > 100 µg/mL | MIC (Pellicularia sasakii): > 50 µg/mL | MIC [1]: > 100 µg/mL | MIC (Piricularia oryzae): > 100 µg/mL | antibacterial activity to Gram-positive bacteria (Gram-positive bacteria): antibacterial activity to Gram-positive bacteria | IC50 ([2]; Mus musculus, T-cell, read-out: IC50 (inhibition of blastogenesis and proliferation of spleen lymphocyte caused by Con A)): 0.78 µg/mL (≈ 1.61 µM) | inhibition at 0.2 µg/mL ([2]; Mus musculus, T-cell, 0.20 μg/ml test compound, read-out: Inhibition rate): 1.5% | inhibition at 0.78 µg/mL ([2]; Mus musculus, T-cell, 0.78 μg/ml test compound, read-out: Inhibition rate): 50.5% | inhibition at 3.1 µg/mL ([2]; Mus musculus, T-cell, 3.1 μg/ml test compound, read-out: Inhibition rate): 76.3% | inhibition at 12.5 µg/mL ([2]; Mus musculus, T-cell, 12.5 μg/ml test compound, read-out: Inhibition rate): 95.1% | inhibition at 50 µg/mL ([2]; Mus musculus, T-cell, 50 μg/ml test compound, read-out: Inhibition rate): 96.5% | activity inhibitory to the reaction of proliferation of mouse spleen cells activated with Concanavalin A ([2]; in vitro, result in words): exhibit an activity inhibitory to the reaction of proliferation of mouse spleen cells | MIC [3]: > 100 µg/mL | MIC [4]: > 100 µg/mL | MIC (Candida tropicalis F-1): > 100 µg/mL | Inhibition rate (DTH footpad thickness) ([5]; 0.5 mg/mouse): 7.7% | Inhibition rate (DTH footpad thickness) ([5]; 2.0 mg/mouse): 23.4% | Inhibition rate (DTH footpad thickness) ([5]; 8.0 mg/mouse): 36.1% | MIC (Xanthomonas citri): > 100 µg/mL | MIC (Cochliobolus miyabeanus): > 100 µg/mL | Inhibition rate (DTH footpad thickness) ([6]; 15.6 μg/mouse): 1.9% | Inhibition rate (DTH footpad thickness) ([6]; 62.5 μg/mouse): 3.5% | Inhibition rate (DTH footpad thickness) ([6]; 250 μg/mouse): 26.6% | Inhibition rate (DTH footpad thickness) ([6]; 1000 μg/mouse): 99.3% | IC50 (Mouse melanoma B-16): 8.3 µg/mL (≈ 17.2 µM) | MIC (Aspergillus niger F-16): > 100 µg/mL | inhibition at 0.1 µg/mL ([7]; Rattus norvegicus, T-cell, 0.10 μg/ml test compound, read-out: Inhibition rate): 16% | inhibition at 0.39 µg/mL ([7]; Rattus norvegicus, T-cell, 0.39 μg/ml test compound, read-out: Inhibition rate): 5% | inhibition at 1.56 µg/mL ([7]; Rattus norvegicus, T-cell, 1.56 μg/ml test compound, read-out: Inhibition rate): 0% | inhibition at 25 µg/mL ([7]; Rattus norvegicus, T-cell, 25 μg/ml test compound, read-out: Inhibition rate): 94% | inhibition at 100 µg/mL ([7]; Rattus norvegicus, T-cell, 100 μg/ml test compound, read-out: Inhibition rate): 56% | IC50 ([7]; Rattus norvegicus, T-cell, 120 hours, 3H-thymidine incorporation, read-out: IC50 (inhibition of mixed lymphocyte culture reaction)): 13.9 µg/mL (≈ 28.7 µM) | activity to inhibit the proliferation of the T cells (responder cell) in mixed lymphocyte culture reaction ([7]; in vitro, result in words): have an activity to inhibit the reaction of proliferation of the T cells | absorption into the digestive tracts / oral absorption [8]: hardly absorbed into the digestive tracts | MIC [9]: > 100 µg/mL | MIC (Candida albicans 3147): > 100 µg/mL | MIC [10]: > 100 µg/mL | IC50 (Mouse leukemia EL-4): 4.1 µg/mL (≈ 8.48 µM) | IC50 (Mouse leukemia P388D1): 10 µg/mL (≈ 20.7 µM)
